Holding throughout (format): cell-based
For one experiment, the system named is Penicillium roqueforti. Briefly: Microbial reduction (MLC) in clear apple juice seeded with Penicillium roqueforti, preservative with or without PEF. The note with it: 10^5 CFU/ml. The source says: (§1) In the examples hereinafter, the Elcrack® apparatus of the Deutsche Institute für Lebensmitteltechnik e. V. [German Institute for food technology] was used for the PEF treatment.
(§2) The treatment proceeded at differing field strengths and energy densities, wherein the pulse width was 20 μs and the pulse frequency 400 Hz.
(§3) In the examples hereinafter, in each case clear apple juice was admixed with stirring by means of a propeller agitator with a microbial or spore suspension, then after approximately 3 minutes, optionally further antimicrobially active substances, and thereafter after approximately 2 minutes, DMDC. The microbial or spore suspension was added in such a manner that a defined amount of cells, generally 10^3 to 10^5 CFU/ml were present in the apple juice.
(§4) The apple juice was then treated by PEF (using the above-described Elcrack® apparatus). As further microbially active substances, sodium benzoate or potassium sorbate were used.
(§5) As a measure for microbial reduction, the median logarithmic cell count reduction (MLC) was determined. In this case the logarithm of the surviving cell count is subtracted from the logarithm of the initial cell count. The higher the MLC value, the higher the microbial reduction and the better the activity is.
(§6) A: Bacillilus subtilis DSM 347 (ATCC 6633) B: Penicillium roqueforti DSM 1079 (ATCC 34908) C: Lactobacillus frigidus DSM 6235 D: Saccharomyces […] DSM 70449 (ATCC 18824)

Another experiment has as its system Bacillus subtilis. Briefly: Microbial reduction (MLC) in clear apple juice seeded with Bacillus subtilis, preservative with or without PEF. Particulars: 10^3 CFU/ml.
From the text: as §1, §2, §3, §4, §5, §6

Another experiment concerns Saccharomyces cerivisiae. Briefly: Microbial reduction (MLC) in clear apple juice seeded with Saccharomyces cerivisiae, preservative with PEF. The note with it: 10^5 CFU/ml, PEF 5 kV/cm, 3-6 J/ml, after 24 h.
From the text: as §1, §2, §3, §4, §5, §6

A further experiment relates to Lactobacillus frigidus. Briefly: Microbial reduction (MLC) in clear apple juice seeded with Lactobacillus frigidus, preservative with or without PEF. Particulars: 10^5 CFU/ml, after 1 week.
From the text: as §1, §2, §3, §4, §5, §6

Setting [1] is: PEF 30 kV/cm, 94-104 J/ml, after 24 h.
[2] abbreviates: PEF 35 kV/cm, 110-116 J/ml, after 24 h.

Molecules are shown by their SMILES.

As to `C/C=C/C=C/C(=O)[O-].[K+]` [VB4, potassium sorbate], the “MLC (median logarithmic cell count reduction)” value in the experiment with Penicillium roqueforti (setting [1]) is “none; heavy”. For `COC(=O)OC(=O)OC` [Example A1, dimethyl dicarbonate], in the experiment with Bacillus subtilis (setting [2]), the “MLC (median logarithmic cell count reduction)” value is given as 2.2/24 h.

Turning to `COC(=O)OC(=O)OC` [Example A5, dimethyl dicarbonate], in the experiment with Bacillus subtilis (PEF 35 kV/cm, 111 J/ml, after 1 week), the “MLC (median logarithmic cell count reduction)” value is listed as 3.0/1 week. As to `COC(=O)OC(=O)OC` [Example D1, dimethyl dicarbonate], the “MLC (median logarithmic cell count reduction)” value in the experiment with Saccharomyces cerivisiae was “min 7/24 h”. `C/C=C/C=C/C(=O)[O-].[K+]` [VC3, potassium sorbate]: the “MLC (median logarithmic cell count reduction)” value with Lactobacillus frigidus (PEF 30 kV/cm, 88-93 J/ml) was 3.0/1 week.

Regarding `O=C([O-])c1ccccc1.[Na+]` [VD2, sodium benzoate], the “MLC (median logarithmic cell count reduction)” value with Saccharomyces cerivisiae is listed as “none; heavy”. Take `COC(=O)OC(=O)OC` [VB1, dimethyl dicarbonate]: in the experiment on Penicillium roqueforti (no PEF, 21° C., after 24 h), the “MLC (median logarithmic cell count reduction)” value is 6.4/24 h. Regarding `COC(=O)OC(=O)OC` [VC1, dimethyl dicarbonate], the “MLC (median logarithmic cell count reduction)” value in the experiment with Lactobacillus frigidus (no PEF, 21° C.) is on record as 2.3/1 week. With `COC(=O)OC(=O)OC` [Example A4, dimethyl dicarbonate], in the experiment with Bacillus subtilis (PEF 15 kV/cm, 23 J/ml, after 24 h), the “MLC (median logarithmic cell count reduction)” value is 1.4/24 h.

Turning to `O=C([O-])c1ccccc1.[Na+]` [VA1, sodium benzoate], the “MLC (median logarithmic cell count reduction)” value in the experiment on Bacillus subtilis (setting [2]) was 2.0/24 h. On to `COC(=O)OC(=O)OC` [Example B5, dimethyl dicarbonate], for which the “MLC (median logarithmic cell count reduction)” value with Penicillium roqueforti (PEF 30 kV/cm, 94-104 J/ml, after 4 weeks) is recorded as “at least 7/4”. With `O=C([O-])c1ccccc1.[Na+]` [VC2, sodium benzoate], the “MLC (median logarithmic cell count reduction)” value in the experiment on Lactobacillus frigidus (PEF 30 kV/cm, 88-93 J/ml) is 2.8/1 week. As for `C/C=C/C=C/C(=O)[O-].[K+]` [VD3, potassium sorbate], the “MLC (median logarithmic cell count reduction)” value with Saccharomyces cerivisiae is recorded as “none; heavy”. Turning to `O=C([O-])c1ccccc1.[Na+]` [VB3, sodium benzoate], the “MLC (median logarithmic cell count reduction)” value in the experiment with Penicillium roqueforti (setting [1]) is listed as “none; heavy”. Turning to `C/C=C/C=C/C(=O)[O-].[K+]` [VA2, potassium sorbate], the “MLC (median logarithmic cell count reduction)” value with Bacillus subtilis (setting [2]) was 0.5/24 h. Turning to `COC(=O)OC(=O)OC` [Example C1, dimethyl dicarbonate], the “MLC (median logarithmic cell count reduction)” value with Lactobacillus frigidus (PEF 30 kV/cm, 88-93 J/ml) is listed as 3.6/1 week.
